# Assay results taken from ChEMBL document CHEMBL1909046, “DrugMatrix in vitro pharmacology data”.
# Biological target: Cytochrome P450 3A4 (Homo sapiens, UniProt P08684); also: in other assays of this panel Not Active means under 50% inhibition at 10 µM
# Settings: bti-tn-5b1-4
# Chain of Cytochrome P450 3A4 (P08684 whole entry): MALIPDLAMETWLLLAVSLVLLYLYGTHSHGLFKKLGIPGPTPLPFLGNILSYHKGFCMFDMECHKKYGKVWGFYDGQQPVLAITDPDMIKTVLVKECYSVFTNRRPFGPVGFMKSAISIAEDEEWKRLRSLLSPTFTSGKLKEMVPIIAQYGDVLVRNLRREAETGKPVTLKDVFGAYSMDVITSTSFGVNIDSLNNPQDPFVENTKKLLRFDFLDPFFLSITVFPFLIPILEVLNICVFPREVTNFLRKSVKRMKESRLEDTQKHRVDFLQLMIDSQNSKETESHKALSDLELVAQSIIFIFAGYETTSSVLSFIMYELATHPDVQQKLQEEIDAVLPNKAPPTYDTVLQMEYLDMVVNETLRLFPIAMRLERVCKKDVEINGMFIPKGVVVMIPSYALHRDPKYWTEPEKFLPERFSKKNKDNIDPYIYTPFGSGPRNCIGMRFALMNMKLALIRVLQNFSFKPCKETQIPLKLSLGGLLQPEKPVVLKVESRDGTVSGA
Compound,IC50,Ki
CC1=NN(c2ccccc2)C(=O)C1 [EDARAVONE],Not Active,Not Active
C[C@]12CC[C@@H]3c4ccc(O)cc4CC[C@H]3[C@@H]1C[C@@H](O)[C@@H]2O [ESTRIOL],Not Active,Not Active
C#C[C@]1(O)CC[C@H]2[C@@H]3CCC4=CC(=O)CC[C@]4(C)[C@H]3CC[C@@]21C [ETHISTERONE],Not Active,Not Active
CN1CCN(c2c(F)cc3c(=O)c(C(=O)O)cn(CCF)c3c2F)CC1 [FLEROXACIN],Not Active,Not Active
O=c1[nH]c(=O)n([C@H]2C[C@H](O)[C@@H](CO)O2)cc1F [FLOXURIDINE],Not Active,Not Active

# Test system: not listed separately
# Test: DRUGMATRIX: Leukotriene, BLT (LTB4) radioligand binding (ligand: [3H]LTB4)
# Assay type: cell membranes, Membrane
# Settings: u-937; Not Active = under 50% inhibition at 10 µM
Compound,IC50,Ki
CC1=NN(c2ccccc2)C(=O)C1 [EDARAVONE],Not Active,Not Active
C[C@]12CC[C@@H]3c4ccc(O)cc4CC[C@H]3[C@@H]1C[C@@H](O)[C@@H]2O [ESTRIOL],Not Active,Not Active
C#C[C@]1(O)CC[C@H]2[C@@H]3CCC4=CC(=O)CC[C@]4(C)[C@H]3CC[C@@]21C [ETHISTERONE],Not Active,Not Active
CN1CCN(c2c(F)cc3c(=O)c(C(=O)O)cn(CCF)c3c2F)CC1 [FLEROXACIN],Not Active,Not Active
O=c1[nH]c(=O)n([C@H]2C[C@H](O)[C@@H](CO)O2)cc1F [FLOXURIDINE],Not Active,Not Active

# Test system: not listed separately
# Test: DRUGMATRIX: Glutamate, NMDA, Phencyclidine radioligand binding (ligand: [3H] TCP)
# Assay type: cell membranes, Rattus norvegicus, Wistar, Cerebral cortex, Membrane
# Settings: Not Active = under 50% inhibition at 10 µM
Compound,IC50,Ki
CC1=NN(c2ccccc2)C(=O)C1 [EDARAVONE],Not Active,Not Active
C[C@]12CC[C@@H]3c4ccc(O)cc4CC[C@H]3[C@@H]1C[C@@H](O)[C@@H]2O [ESTRIOL],Not Active,Not Active
C#C[C@]1(O)CC[C@H]2[C@@H]3CCC4=CC(=O)CC[C@]4(C)[C@H]3CC[C@@]21C [ETHISTERONE],Not Active,Not Active
CN1CCN(c2c(F)cc3c(=O)c(C(=O)O)cn(CCF)c3c2F)CC1 [FLEROXACIN],Not Active,Not Active
O=c1[nH]c(=O)n([C@H]2C[C@H](O)[C@@H](CO)O2)cc1F [FLOXURIDINE],Not Active,Not Active

# Test system: not listed separately
# Test: DRUGMATRIX: Serotonin (5-Hydroxytryptamine) 5-HT3 radioligand binding (ligand: [3H] GR-65630)
# Assay type: cell membranes, Membrane
# Settings: hek293; Not Active = under 50% inhibition at 10 µM
Compound,IC50,Ki
CC1=NN(c2ccccc2)C(=O)C1 [EDARAVONE],Not Active,Not Active
C[C@]12CC[C@@H]3c4ccc(O)cc4CC[C@H]3[C@@H]1C[C@@H](O)[C@@H]2O [ESTRIOL],Not Active,Not Active
C#C[C@]1(O)CC[C@H]2[C@@H]3CCC4=CC(=O)CC[C@]4(C)[C@H]3CC[C@@]21C [ETHISTERONE],Not Active,Not Active
CN1CCN(c2c(F)cc3c(=O)c(C(=O)O)cn(CCF)c3c2F)CC1 [FLEROXACIN],Not Active,Not Active
O=c1[nH]c(=O)n([C@H]2C[C@H](O)[C@@H](CO)O2)cc1F [FLOXURIDINE],Not Active,Not Active

# Biological target: Delta-type opioid receptor (Homo sapiens, UniProt P41143); also: in other assays of this panel Not Active means under 50% inhibition at 10 µM
# Assay type: cell membranes, HEK293, Membrane
# Settings: hek293
# Chain of Delta-type opioid receptor (P41143 whole entry): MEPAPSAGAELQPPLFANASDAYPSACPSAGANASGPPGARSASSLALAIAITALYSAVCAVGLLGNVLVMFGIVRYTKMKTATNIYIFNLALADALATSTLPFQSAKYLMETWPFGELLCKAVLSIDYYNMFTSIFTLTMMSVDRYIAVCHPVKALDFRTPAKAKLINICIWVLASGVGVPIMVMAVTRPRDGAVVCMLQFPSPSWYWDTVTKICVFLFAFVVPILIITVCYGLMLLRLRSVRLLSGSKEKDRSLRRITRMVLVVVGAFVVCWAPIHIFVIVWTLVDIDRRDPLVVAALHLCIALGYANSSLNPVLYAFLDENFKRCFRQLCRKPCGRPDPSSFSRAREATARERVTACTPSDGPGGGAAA
row,Compound,IC50
1,CC1=NN(c2ccccc2)C(=O)C1 [EDARAVONE],Not Active
2,C[C@]12CC[C@@H]3c4ccc(O)cc4CC[C@H]3[C@@H]1C[C@@H](O)[C@@H]2O [ESTRIOL],Not Active
3,C#C[C@]1(O)CC[C@H]2[C@@H]3CCC4=CC(=O)CC[C@]4(C)[C@H]3CC[C@@]21C [ETHISTERONE],Not Active
4,CN1CCN(c2c(F)cc3c(=O)c(C(=O)O)cn(CCF)c3c2F)CC1 [FLEROXACIN],Not Active
5,O=c1[nH]c(=O)n([C@H]2C[C@H](O)[C@@H](CO)O2)cc1F [FLOXURIDINE],Not Active

# Biological target: T1, Angiotensin-converting enzyme (Oryctolagus cuniculus, UniProt P12822);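 also: enzymatic inhibition of angiotensin-converting enzyme measured with FAPGG as the substrate; in other assays of this panel Not Active means under 50% inhibition at 10 µM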
# T1 sequence (P12822 whole entry): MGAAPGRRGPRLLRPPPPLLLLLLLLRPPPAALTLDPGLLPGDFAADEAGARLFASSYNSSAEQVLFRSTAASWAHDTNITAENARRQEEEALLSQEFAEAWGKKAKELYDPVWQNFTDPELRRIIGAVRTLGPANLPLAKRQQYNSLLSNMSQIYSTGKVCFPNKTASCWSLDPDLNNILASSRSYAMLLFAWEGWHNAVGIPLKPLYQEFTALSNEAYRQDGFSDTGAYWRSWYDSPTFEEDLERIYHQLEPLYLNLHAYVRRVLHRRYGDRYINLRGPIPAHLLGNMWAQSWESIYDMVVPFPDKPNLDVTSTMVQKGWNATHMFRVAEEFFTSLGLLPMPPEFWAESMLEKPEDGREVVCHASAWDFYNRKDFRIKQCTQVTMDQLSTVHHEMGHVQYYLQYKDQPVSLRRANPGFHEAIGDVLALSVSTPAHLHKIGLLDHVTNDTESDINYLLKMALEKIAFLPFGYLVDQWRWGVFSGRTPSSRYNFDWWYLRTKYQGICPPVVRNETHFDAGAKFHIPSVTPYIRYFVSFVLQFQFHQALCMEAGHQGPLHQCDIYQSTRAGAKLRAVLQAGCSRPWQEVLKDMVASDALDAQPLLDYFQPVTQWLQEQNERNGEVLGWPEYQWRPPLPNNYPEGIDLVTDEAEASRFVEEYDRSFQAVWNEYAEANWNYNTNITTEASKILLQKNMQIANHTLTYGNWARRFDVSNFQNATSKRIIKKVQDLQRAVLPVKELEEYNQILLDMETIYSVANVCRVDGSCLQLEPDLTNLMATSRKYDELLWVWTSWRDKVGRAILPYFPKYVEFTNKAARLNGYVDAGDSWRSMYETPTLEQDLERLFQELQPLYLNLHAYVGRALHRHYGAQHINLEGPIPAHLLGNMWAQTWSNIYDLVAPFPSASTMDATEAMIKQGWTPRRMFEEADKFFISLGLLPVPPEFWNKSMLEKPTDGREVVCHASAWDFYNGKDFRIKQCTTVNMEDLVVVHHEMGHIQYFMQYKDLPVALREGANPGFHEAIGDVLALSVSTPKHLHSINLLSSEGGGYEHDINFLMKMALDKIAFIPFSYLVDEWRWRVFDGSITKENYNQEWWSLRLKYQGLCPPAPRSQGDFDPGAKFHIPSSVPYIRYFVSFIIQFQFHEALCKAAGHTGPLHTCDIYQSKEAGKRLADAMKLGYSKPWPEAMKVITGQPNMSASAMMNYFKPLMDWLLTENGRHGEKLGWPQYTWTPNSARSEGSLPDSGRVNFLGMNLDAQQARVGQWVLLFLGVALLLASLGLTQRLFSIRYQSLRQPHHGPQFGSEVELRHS
# Assay type: tissue-based, Lung
# Settings: not given
row,Compound,IC50
1,CC1=NN(c2ccccc2)C(=O)C1 [EDARAVONE],Not Active
2,C[C@]12CC[C@@H]3c4ccc(O)cc4CC[C@H]3[C@@H]1C[C@@H](O)[C@@H]2O [ESTRIOL],Not Active
3,C#C[C@]1(O)CC[C@H]2[C@@H]3CCC4=CC(=O)CC[C@]4(C)[C@H]3CC[C@@]21C [ETHISTERONE],Not Active
4,CN1CCN(c2c(F)cc3c(=O)c(C(=O)O)cn(CCF)c3c2F)CC1 [FLEROXACIN],Not Active
5,O=c1[nH]c(=O)n([C@H]2C[C@H](O)[C@@H](CO)O2)cc1F [FLOXURIDINE],Not Active

# Biological target: Estrogen receptor beta (Homo sapiens, UniProt Q92731); also: in other assays of this panel Not Active means under 50% inhibition at 10 µM
# Settings: sf9
# Chain of Estrogen receptor beta (Q92731 whole entry): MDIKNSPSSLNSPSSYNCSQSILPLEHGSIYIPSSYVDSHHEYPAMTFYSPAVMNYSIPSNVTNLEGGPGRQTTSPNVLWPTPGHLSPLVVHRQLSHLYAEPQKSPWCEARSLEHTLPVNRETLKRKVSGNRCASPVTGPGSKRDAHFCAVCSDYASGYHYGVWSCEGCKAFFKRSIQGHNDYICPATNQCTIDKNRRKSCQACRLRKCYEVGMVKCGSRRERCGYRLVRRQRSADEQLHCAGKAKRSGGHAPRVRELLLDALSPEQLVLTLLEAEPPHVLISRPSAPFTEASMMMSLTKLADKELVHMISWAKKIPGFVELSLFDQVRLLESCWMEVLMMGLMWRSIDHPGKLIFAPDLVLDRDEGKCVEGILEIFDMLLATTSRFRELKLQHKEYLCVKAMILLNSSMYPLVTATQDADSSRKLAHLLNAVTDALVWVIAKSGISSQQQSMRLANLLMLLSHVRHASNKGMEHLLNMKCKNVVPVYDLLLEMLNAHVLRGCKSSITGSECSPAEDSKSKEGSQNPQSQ
row,Compound,IC50
1,CC1=NN(c2ccccc2)C(=O)C1 [EDARAVONE],Not Active
2,C[C@]12CC[C@@H]3c4ccc(O)cc4CC[C@H]3[C@@H]1C[C@@H](O)[C@@H]2O [ESTRIOL],Not Active
3,C#C[C@]1(O)CC[C@H]2[C@@H]3CCC4=CC(=O)CC[C@]4(C)[C@H]3CC[C@@]21C [ETHISTERONE],Not Active
4,CN1CCN(c2c(F)cc3c(=O)c(C(=O)O)cn(CCF)c3c2F)CC1 [FLEROXACIN],Not Active
5,O=c1[nH]c(=O)n([C@H]2C[C@H](O)[C@@H](CO)O2)cc1F [FLOXURIDINE],Not Active
